According to US20250154228A1, “HIGH-TRANSDERMAL-ABSORPTION PEPTIDE AND RECOMBINANT COLLAGEN CONSTRUCTED BY MEANS OF REPETITIONS OF PEPTIDE” (XI'AN GIANT BIOGENE TECHNOLOGY CO., LTD, priority 2022, published 2025):
Ends that are not written are not given here.

Test: 24 h transdermal penetration through mouse skin in vitro, single-chamber diffusion cell, BCA determination
Format: in vitro ADME, Kunming mice
Details: collagen peptides, 5 mg/ml in 0.9% NaCl, diffusion area 2.0 cm^2, 37.5° C., receiving solution after 24 h, BCA kit
Method: 10 Kunming mice of 20 to 22 g with half male and half […] were used in the experiment. After the mice were killed, the hairs on the abdomen were removed. Then the skin on the hair-removed area was peeled off, stripped of fat and grain, and rinsed repeatedly with distilled water. After being washed, the mouse skins were rinsed with normal saline, then treated with 10% glycerol, and stored at −20° C. for use (used up within 7 days).
Single-chamber diffusion cell: The effective diffusion area of the diffusion cell is 2.0 cm^2, the volume of the receiving cell is 14 ml, the length of the custom-made stirrer is 1.4 cm, and the receiving liquid is 0.9% NaCl solution.
The stored mouse skin was taken out, thawed, washed with normal saline, and sandwiched between the receiving chamber and the supplying chamber, with the medicated side facing the supplying chamber and the skin side facing the receiving chamber. The temperature of the water bath system was adjusted to 37.5° C., and the stirring speed was adjusted to 100 rpm/min. 0.9% NaCl solution pre-warmed at 37° C. was added to the receiving chamber and the air bubbles were exhausted. In order to reduce the interference, the inner surface of the mouse skin was firstly contacted with the receiving solution without medication and all the receiving solution was replaced. Then the 18 collagen peptides synthesized were prepared into 5 mg/ml solutions using 0.9% NaCl respectively, which were injected into the supplying chamber and firmly adhere to the mouse skin respectively. After 24 h, part of the receiving solution was absorbed with a syringe as the sample solution to determine the transdermal amount of collagen peptide.
The BCA kit method was used to determine the polypeptide content in the sample solution. […]

Row | Sequence | 24 h penetration amount
1 | GAPGAPGSQGAPGLQGMPGER [compound 13] | 4048.04 µg
2 | GDLGAPGPSGARGERGFPGER [compound 11] | 2994.13 µg
3 | GEQGVPGDLGAPGPSGARGER [compound 9] | 3341.78 µg
4 | GERGAAGLPGPKGDRGDAGPK [compound 14] | 3745.15 µg
5 | GERGFPGERGVQGPPGPAGPR [compound 10] | 2992.77 µg
6 | GERGFPGLPGPSGEPGKQGPS [compound 16] | 3034.99 µg
7 | GERGGPGSRGFPGADGVAGPK [compound 6] | 3253.23 µg
8 | GERGPPGPMGPPGLAGPPGES [compound 18] | 3308.22 µg
9 | GERGPPGPQGARGLPGTAGLP [compound 2] | 3697.14 µg
10 | GERGRPGAPGPAGARGNDGAT [compound 4] | 3124.48 µg
11 | GERGVPGPPGAVGPAGKDGEA [compound 8] | 3113.64 µg
12 | GERGVQGPPGPAGPRGANGAP [compound 12] | 3103.23 µg
13 | GKRGARGEPGPTGLPGPPGER [compound 5] | 3023.05 µg
14 | GLPGPSGEPGKQGPSGASGER [compound 17] | 3498.56 µg
15 | GPPGKNGDDGEAGKPGRPGER [compound 1] | 3041.21 µg
16 | GPQGIAGQRGVVGLPGQRGER [compound 15] | 3111.47 µg
17 | GSPGENGAPGQMGPRGLPGER [compound 3] | 3213.66 µg
18 | GVMGFPGPKGAAGEPGKAGER [compound 7] | 3389.09 µg
